Measured values as given in US20090270453A1, “ANTI-MANIC EFFECTIVE DOSES OF SERTINDOLE” (priority 2007, published 2009).
“Also recorded” adds a separate entry of the source.

Experiments:
[1] = tested on: sensitized response to an acute AMPH challenge; experiment: Sensitized AMPH response model (induced hyperactivity); type: in vivo, Male Crl:NMRI mice; details: for effect on AMPH induced hyperactivity in sensitized mice: s.c. pre-treatment, about 30 min recording
Procedure: (§1) Subjects: Male Crl:NMRI mice (about 20 g) were at the animal facility about 5 days prior to the start of the experiment and were housed in climate-controlled animal facilities under normal light-dark cycle (lights on about 06:00 to about 18:00). The mice were kept 6 per cage and allowed enrichment (two plastic houses+nesting material).
(§2) Drugs: All compounds were administered subcutaneously and are listed as free base doses. The mice were pre-treated with either d-amphetamine (about 1.8 mg/kg) or vehicle (about 0.9% NaCl, about 10 ml/kg) once daily for five consecutive days.
Test procedure: About 17-19 days after the pre-treatment, the animals were treated with test substance or vehicle and individually placed to habituate for about 30 min in motility boxes (about 20×about 32 cm) equipped with about 5×about 8 light sources and infrared cells spaced by about 4 cm. The light beams crossed the cage 1.8 cm above the bottom of the cage. Recording of a motility count requires interruption of adjacent light beams, thus avoiding counts induced by stationary movements of the mice. After habituation, an acute dose of d-amphetamine (about 0.95 mg/kg) or vehicle was administered and data acquisition was begun and lasted for about 30 min.
Data Analysis: Data were averaged within the groups (n=12) and are presented as mean±SD. The acute effect of test substance against the sensitized response to amphetamine was statistically evaluated by one-way ANOVA of variance: Dunn's method was applied for post hoc testing against the sensitized group receiving […]

saline activity = experiment: Activity of saline (non-AMPH) mice in the sensitized AMPH response model; type: in vivo, Male Crl:NMRI mice; details: sertindole about 0.63 mg/kg
Procedure: as §1, §2
Test procedure: About 17-19 days after the pre-treatment, the animals were treated with test substance or vehicle and individually placed to habituate for about 30 min in motility boxes (about 20×about 32 cm) equipped with about 5×about 8 light sources and infrared cells spaced by about 4 cm. The light beams crossed the cage 1.8 cm above the bottom of the cage. […]
Data Analysis: Data were averaged within the groups (n=12) and are presented as mean±SD. The acute effect of test substance against the sensitized response to amphetamine was statistically evaluated by one-way ANOVA of variance: Dunn's method was applied for post hoc testing against the sensitized group receiving (NaCl, about 1 ml/kg) followed by CDP (about 8.9 mg/kg in 10% hydroxypropyl-beta-cyclodextrin) was administrated about 35 minutes before the test. […]

α1-adrenergic receptors = details: Sanchez et al. 1991; Arnt and Skarsfeldt 1998; cited from earlier work
[2] = tested on: AMPH+CDP induced locomotor activity; experiment: Sensitized AMPH+CDP response model (induced locomotor hyperactivity); type: in vivo, Male Wistar rats; details: for effect on AMPH+CDP induced locomotor activity (hyperactivity): rats, s.c. pre-treatment, about 120 min test-period
Procedure: (§3) Subjects: Male Wistar rats weighing about 150-200 g were housed 2-4 rats per cage in makrolon cages (about 20×about 35 cm) equipped with sawdust and with one plastic house for enrichment. The animals were kept at room temperature (about 20° C.±2) in about 12-hour light/dark cycle (lights on at about 06:00) with free access to food and tap water. The rats were allowed to acclimatize to the animal facility premises for about 5-9 days prior to the initiation of experiments. The animals were taken to the experimental room on the day before the experiment and weighed.
Drugs: All drugs are listed as mg free base/kg with the exception of lithium (mEq/kg). Drug solutions were titrated into a pH range of about 4.5-7.0 for subcutaneous (s.c.) administration. To induce hyperactivity, amphetamine sulphate (about 0.9 mg/kg in about 0.9% NaCl, about 1 ml/kg) followed by CDP (7-Chloro-2-(methylmino)-5-phenyl-3h-1,4-benzodiazepine-4-oxide, about 8.9 mg/kg in about 10% hydroxypropyl-beta-cyclodextrin) was administrated about 35 minutes before the test. A parallel set of control animal received two vehicle injections. Lithium chloride (about 0.2-0.9 mEq/kg) was dissolved in distilled water isosmotically supplemented with NaCl, and administrated about 210 minutes before testing. Lamotrigine (6-(2,3-Dichloro-phenyl)-[1,2,4]-triazine-3,5-diamine, about 2.5-80 mg/kg) was dissolved in about 10% hydroxypropyl-beta-cyclodextrin and administrated about 30 minutes before the test.
(§4) Test procedure: For the assessment of locomotor activity, makrolon cages (about 20×about 35 cm) with a thin layer of standard bedding material were placed in a U-frame equipped longitudinally with 4 infrared light sources and photocells placed about 4 cm above the bottom of the cage. All experiments were conducted under normal light conditions. The animals were placed individually in test boxes and the assessment of locomotor activity was immediately begun. During the test session, locomotor activity was recorded as crossings of infrared light beams and total locomotor activity was the accumulated number of crossings over the approximately 120-min period. The recording of a motility count required the crossing of two adjacent light beams, thus avoiding counts induced by stationary movements of the rat.
Data Analysis: The average total basal locomotor activity of the control groups in the different experiments varied between 322-516 light beam crossings (see Table 1). Due to this variation, the results in each experiment were normalized to percentage activity relative to the average total locomotor activity of control group that was set as 100%. Statistical analysis of differences in total locomotor activity (normalized data) among the various treatment groups was carried out using a two-way ANOVA with factors treatment (AMPH+CDP vs. vehicle) and drug (drug vs. vehicle). In case of a significant interaction, a post hoc Student-Newman-Keuls Method was used for multiple comparisons. A probability level of 0.05 was considered significant.
Crossings of light-beams as a measure of locomotor activity over about a 120 min test-period is shown as percentage of the control group-level that is set to 100%. The bars show the mean±SEM for each group and the dots show the activity of individual rats (n=10-12). Administration of amphetamine (about 0.9 mg/kg, s.c.) and chlordiazepoxide (about 8.9 mg/kg, s.c.) produced a significant increase in locomotor activity (***p<0.001 vs. control group (O) in all experiments).

schizophrenic patients = details: human clinical studies; Daniel D, et al. 1995; cited from earlier work
serotonin 5-HT2 = details: Sanchez et al. 1991; Arnt and Skarsfeldt 1998; cited from earlier work
[3] = tested on: baseline locomotor activity of control rats; experiment: Baseline locomotor activity of control rats in locomotor box; type: in vivo, Male Wistar rats; details: for Average Crossings in % (SEM): % of control group set to 100%; for effect on baseline (basal) locomotor activity: locomotor box about 2 hours, administered doses
Procedure: as §3, §4
Statistical analysis of differences in total locomotor activity (normalized data) among the various treatment groups was carried out using a two-way ANOVA with factors treatment (AMPH+CDP vs. vehicle) and drug (drug vs. vehicle). In case of a significant interaction, a post hoc Student-Newman-Keuls Method was used for multiple comparisons. A probability level of 0.05 was considered significant.

dopamine D2 = dopamine D2 (Homo sapiens, UniProt P14416); details: Sanchez et al. 1991; Arnt and Skarsfeldt 1998; cited from earlier work
[4] = tested on: AMPH+CDP induced locomotor activity; details: rats; Lamberty, et al. 2001; cited from earlier work
[5] = tested on: sensitized response to an acute AMPH challenge; details: mice; Husum 2005, poster no. 32.06; cited from earlier work

dopamine D2, sequence (P14416 whole entry): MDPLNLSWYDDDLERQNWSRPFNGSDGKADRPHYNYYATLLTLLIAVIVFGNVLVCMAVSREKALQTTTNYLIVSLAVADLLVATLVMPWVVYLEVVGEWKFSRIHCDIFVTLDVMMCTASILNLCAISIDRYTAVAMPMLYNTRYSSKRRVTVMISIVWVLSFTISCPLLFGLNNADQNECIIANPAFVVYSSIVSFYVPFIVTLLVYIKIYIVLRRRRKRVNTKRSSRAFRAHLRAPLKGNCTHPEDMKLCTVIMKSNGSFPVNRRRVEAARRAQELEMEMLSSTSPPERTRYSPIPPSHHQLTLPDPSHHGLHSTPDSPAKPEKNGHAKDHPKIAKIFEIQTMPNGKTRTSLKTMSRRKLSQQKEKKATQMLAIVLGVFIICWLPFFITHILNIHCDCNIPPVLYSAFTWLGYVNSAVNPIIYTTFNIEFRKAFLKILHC

Compound: O=C1NCCN1CCN1CCC(c2cn(-c3ccc(F)cc3)c3ccc(Cl)cc23)CC1 [sertindole]
- effect on AMPH induced hyperactivity in sensitized mice [1]: reversed the induced hyperactivity; also recorded: significantly decreased; also recorded: active
- effect on induced hyperactivity ([1]; sertindole 0.16 mg/kg): significantly reversed the induced hyperactivity
- effect on saline activity (saline activity): significantly decreased the saline activity
- affinity for α1-adrenergic receptors (α1-adrenergic receptors): high affinity
- effect on AMPH+CDP induced locomotor activity (hyperactivity) [2]: reduced the induced locomotor activity; also recorded: significantly decreased; also recorded: active
- significance of reduction of AMPH+CDP induced locomotor activity ([2]; sertindole about 0.16 mg/kg, about 120 min s.c. pre-treatment): significant
- significance of reduction of AMPH+CDP induced locomotor activity ([2]; sertindole about 1.25 mg/kg, about 120 min s.c. pre-treatment): significant
- doses effective to treat schizophrenic patients (schizophrenic patients): 12 to 24 mg/day
- affinity for serotonin 5-HT2 (serotonin 5-HT2): high affinity
- Average Crossings in % (SEM) ([3]; 0.02 mg/kg): 116.7%
- Average Crossings in % (SEM) ([3]; 0.16 mg/kg): 119.9%
- Average Crossings in % (SEM) ([3]; 1.25 mg/kg): 132.4%
- effect on baseline (basal) locomotor activity [3]: no significant effect
- affinity for dopamine D2 (dopamine D2): high affinity

Compound: NC(=O)N1c2ccccc2C=Cc2ccccc21 [carbamazepine]
- effectiveness in the AMPH+CDP induced hyperactivity model [4]: effective
- effect on the sensitized response to an acute AMPH challenge [5]: dose-dependently abolish; also recorded: reversed the effect of acute AMPH administration

Compound: CCCC(CCC)C(=O)O [valproate]
- effectiveness in the AMPH+CDP induced hyperactivity model [4]: effective
- effect on the sensitized response to an acute AMPH challenge [5]: dose-dependently abolish; also recorded: reversed the effect of acute AMPH administration

Compound: O=C(CCCN1CCC(O)(c2ccc(Cl)cc2)CC1)c1ccc(F)cc1 [haloperidol]
- effect on the sensitized response to an acute AMPH challenge [5]: reversed the effect of acute AMPH administration

Compound: Nc1nnc(-c2cccc(Cl)c2Cl)c(N)n1 [lamotrigine, 6-(2,3-Dichloro-phenyl)-[1,2,4]-triazine-3,5-diamine]
- significance of reduction of AMPH+CDP induced locomotor activity ([2]; lamotrigine about 20 mg/kg, about 30 min s.c. pre-treatment): significant
- significance of reduction of AMPH+CDP induced locomotor activity ([2]; lamotrigine about 20 mg/kg, about 30 min s.c. pre-treatment, listed as Lamotrigine): significantly counteracted
- significance of reduction of AMPH+CDP induced locomotor activity ([2]; lamotrigine about 40 mg/kg, about 30 min s.c. pre-treatment): significant
- significance of reduction of AMPH+CDP induced locomotor activity ([2]; lamotrigine about 40 mg/kg, about 30 min s.c. pre-treatment, listed as Lamotrigine): significantly counteracted
- significance of reduction of AMPH+CDP induced locomotor activity ([2]; lamotrigine about 80 mg/kg, about 30 min s.c. pre-treatment): significant
- significance of reduction of AMPH+CDP induced locomotor activity ([2]; lamotrigine about 80 mg/kg, about 30 min s.c. pre-treatment, listed as Lamotrigine): significantly counteracted
- effect on AMPH+CDP induced locomotor activity (hyperactivity) [2]: significantly reduced; also recorded: reduced the induced locomotor activity
- effect on AMPH+CDP induced locomotor activity (hyperactivity) ([2]; listed as Lamotrigine): significantly and dose-dependently decreased
- Average Crossings in % (SEM) ([3]; 2.5 mg/kg): 114.5%
- Average Crossings in % (SEM) ([3]; 10 mg/kg): 107.9%
- Average Crossings in % (SEM) ([3]; 20 mg/kg): 97.2%
- Average Crossings in % (SEM) ([3]; 40 mg/kg): 82.0%
- Average Crossings in % (SEM) ([3]; 80 mg/kg): 83.0%
- effect on baseline (basal) locomotor activity [3]: not reduced; also recorded: no significant effect
- effect on the sensitized response to an acute AMPH challenge [5]: dose-dependently abolish; also recorded: reversed the effect of acute AMPH administration

Compound: CN(C)CCCC1(c2ccc(F)cc2)OCc2cc(C#N)ccc21 (centres unmarked) [citalopram]
- effect on AMPH induced hyperactivity in sensitized mice [1]: no effect
- effect on AMPH induced hyperactivity in sensitized mice ([1]; listed as Citalopram): inactive
- Average Crossings in % (SEM) ([3]; 0.8 mg/kg): 71.0%
- effect on baseline (basal) locomotor activity [3]: no significant effect
